In patent US12286423B2, “Antiviral 1,3-di-oxo-indene compounds” (Novartis AG, priority 2020, dated 2025):

Key:
Assay type in all cases: cell-based
HRV A16 = HRV A16 CPE inhibition assay; conditions: Human rhinovirus sp.; HRV A16, cytopathic effect inhibition
Experimental: (§1) Bioactivity of the Compounds of the Invention was Determined Using the Following Methods. Determination of Drug Efficacy Against Picornaviruses Using Cytopathic Effect (CPE) Inhibition Assay
(§2) In the assay, HeLa (human cervical cancer cells), MRC-5 (human fetal lung fibroblast cells), and RD cells (derived from human rhabdomyosarcoma) were employed. For comparison, ribavirin (Riv), Pleconaril (pleco), and […] (BTA) were used as controls. Reagents were dissolved at a concentration of 10-40 mg/ml in 100% dimethyl sulfoxide (DMSO). Water-soluble reagents were dissolved in PBS (−) solution and stored at −20° C. On the day of the experiment, they were used in 3 fold to 5 fold concentrations in such a manner that the concentration of dimethyl sulfoxide in each well was between 0.5% and 1%.
(§3) Pharmaceutical efficacy was determined using a virus-induced cytopathic effect (CPE) inhibition assay. In this regard, after cells suitable for viruses were grown in 96-well plates, dilutions of viruses in DME supplemented with 2% FBS (DME/2% FBS) or MEM supplemented with 2% FBS (MEM/2% FBS) were inoculated in an amount of […] with a concentration corresponding to 100 CCID50 (50% cell culture infective dose) into each well of the plates, and incubated for 30 min-1 hr at 33° C. or 37° C. to allow the viruses to adsorb onto the cells. The culture medium was removed before aliquots of drug dilutions with various concentrations were added in an amount of 100 μl to each well. While HRV (human rhinovirus) was grown at 33° C., the other viruses were incubated in a 37° C. CO2 incubator for 2-3 days. Alternatively, the cells were cultured for 2-3 days without removal of the medium after they were added with 50 μl of each drug dilution having a 2-fold higher concentration and then with 50 μl of the virus dilution. Viruses were incubated in host HeLa cells at 37° C. for 2-3 days in DME/2% or MEM/2% FBS.
(§4) For HeLa cells, the drugs were measured for EC50 (50% maximal effective concentration), which is the concentration of a drug inducing a response halfway between the baseline and maximum, using an MTT assay. With regard to RD and MRC-5 cells, CPE was determined using FDA (Fluorescein diacetate) or MTT. In order to determine the effect of drug toxicity on efficacy results, at the time of inoculation with the virus, mock-infection was also included. A virus-free medium was added to a cell culture, which was then subjected to the same treatment as the mock-infected cells inoculated with the virus. That is, the medium was removed after one hour of incubation, and dilutions of drugs in the medium were added once more. Following incubation for 2-3 days, the cells were observed under a microscope and the drugs were determined for CC50 (50% cytotoxic concentration) at which 50% of the cells were killed, using an MTT assay in which counts of viable cells in mock-infected wells containing drugs were compared to those of viable cells in control wells containing no drugs. In an FDA hydrolysis assay, FDA was added to each well after removal of the medium, and incubated for 20-30 min before fluorescence intensity was measured using a spectrofluorometer to determine CPE in the same manner as in MTT.
(§5) In addition, antiviral effects can be calculated using Mathematical Formula 2 below: Antiviral Effect=[A(Drug/Virus)−A(Virus Control)/A(Cell control)−A(Virus Control)]
(§6) If the survival rate is 100%, its antiviral effect is 100% whereas if the survival rate is 0%, its antiviral effect is none. […]
(§7) Specifically, cells grown to confluence in 96-well plates were infected with 100 50% cell culture infected doses (CCID50) of virus. After an adsorption period of 2 hrs at 37° C., the virus was removed and serial dilutions of the compounds were added. […] After removal of the medium, 90 μl of a culture medium and 10 μl of MTS-phenazine methosulfate (Promega, Leiden, The Netherlands) were added to each well. […]

HRV A29 = HRV A29 CPE inhibition assay; conditions: Human rhinovirus sp.; HRV A29, cytopathic effect inhibition
Experimental: as §1, §2, §3, §4, §5, §6, §7

HRV A1B = HRV A1B CPE inhibition assay; conditions: Human rhinovirus sp., cytopathic effect inhibition, read-out: HRV A1B_CPE (EC50 μM)
Experimental: as §1, §2, §3, §4, §5, §6, §7

[1] = Cytotoxicity (CC50) in mock-infected cells, MTT assay; conditions: human, HeLa cells (mock-infected), 50% cytotoxic concentration, read-out: CYTOTOX (CC50 μM)
Experimental: as §4
That is, the survival rate (% survival) of mock-infected cells for cytotoxicity measurement was calculated using the Mathematical Formula 1 below: Cell Drug=Survival by [A(Drug)−A(Background solution)/A(Cell control)−A(Background×100% Solution)]
While 100% cell survival means no cytotoxicity of the drug, the highest cytotoxicity is reflected by 0% cell survival. The 50% cytotoxic concentration was defined as the concentration required to reduce the cell number by 50%. This concentration of the drug is represented as CC50. Higher values mean lower cytotoxicity. […]
In Mathematical Formulae 3 and 4 above, • OD (CC) represents the OD of the background cell culture that is neither induced by a virus nor treated by chemical, • OD (VC) represents the OD of the control cell culture that is induced by a virus but not treated by chemical, • OD (Virus+Compound) represents the OD of the cell culture infected by a virus that has been treated with a concentrated compound, • OD (Compound) represents the OD of the cell culture that has been treated with a concentrated compound only, and • OD (Blank) represents the OD of the well to which only the cell culture has been added.
The effective concentration (EC50) represents the concentration of a drug at which 50% of cells are allowed to survive by CPE of an induced virus, and the cytotoxicity concentration (CC50) represents the concentration of a drug at which a compound has killed 50% of cells, and they were calculated by the logarithmic interpolation.

C15_C3 REPLICON = test: C15_C3 replicon assay
HRV B14 = HRV B14 CPE inhibition assay; conditions: Human rhinovirus sp.; HRV B14, cytopathic effect inhibition
Experimental: as §1, §2, §3, §4, §5, §6, §7

| Compound | EC50 (HRV A16) [µM] | EC50 (HRV A29) [µM] | EC50 (HRV A1B) [µM] | CC50 [1] [µM] | EC50 (C15_C3 REPLICON) [µM] | EC50 (HRV B14) [µM] |
| --- | --- | --- | --- | --- | --- | --- |
| Cc1c(C(=O)N[C@]23C(=O)c4c(N)cccc4[C@@]2(O)Oc2cc([C@@H](C)C4CC4)ccc23)[nH]c(=O)n1C [Example 18, N-((4bR,9bR)-1-amino-7-((S)-1-cyclopropylethyl)-4b-hydroxy-10-oxo-4b,10-dihydro-9bH-indeno[1,2-b]benzofuran-9b-yl)-1,5-dimethyl-2-oxo-2,3-dihydro-1H-imidazole-4-carboxamide] | 0.05 | 0.016 | 0.018 | 31.8 | 1.65 | – |
| Cc1cc(S(=O)(=O)N2CCN(C)CC2)[nH]c1C(=O)N[C@]12C(=O)c3c(N)cccc3[C@@]1(O)Oc1cc(OC(C)C)ccc12 (single isomer, unassigned) [Example 19] | 0.022 | 0.046 | 0.016 | 48.3 | 0.876 | – |
| C[C@H](c1ccc2c(c1)O[C@]1(O)c3cccc(N)c3C(=O)[C@]21NC(=O)c1cccc(O)n1)C1CC1 [Example 3, N-((4bR,9bR)-1-amino-7-((S)-1-cyclopropylethyl)-4b-hydroxy-10-oxo-4b,10-dihydro-9bH-indeno[1,2-b]benzofuran-9b-yl)-6-hydroxypicolinamide] | 0.057 | 0.02 | 0.033 | 32.3 | 4.81 | 0.016 |
| Cc1cc(S(=O)(=O)N2CCN(C)CC2)[nH]c1C(=O)NC12C(=O)c3c(N)cccc3C1(O)Oc1cc([C@H]3C[C@H]3C)ccc12 (stereo partly drawn) [Example 24, N-(1-amino-4b-hydroxy-7-((1S,2R)-2-methylcyclopropyl)-10-oxo-4b,10-dihydro-9bH-indeno[1,2-b]benzofuran-9b-yl)-3-methyl-5-((4-methylpiperazin-1-yl)sulfonyl)-1H-pyrrole-2-carboxamide] | 0.039 | 0.037 | 0.016 | 28.4 | 0.34 | 0.016 |
| Cc1cc(S(=O)(=O)N2CCN(C)CC2)[nH]c1C(=O)N[C@]12C(=O)c3c(N)cccc3[C@@]1(O)Oc1cc([C@H]3C[C@@H]3C)ccc12 [Example 14, N-((4bR,9bR)-1-amino-4b-hydroxy-7-((1S,2S)-2-methylcyclopropyl)-10-oxo-4b,10-dihydro-9bH-indeno[1,2-b]benzofuran-9b-yl)-3-methyl-5-((4-methylpiperazin-1-yl)sulfonyl)-1H-pyrrole-2-carboxamide] | 0.023 | 0.03 | 0.016 | 21.9 | 0.516 | 0.016 |
| Cc1cc(S(C)(=O)=O)[nH]c1C(=O)NC12C(=O)c3c(N)cccc3C1(O)Oc1cc(C3C[C@H]3C)ccc12 (stereo in doubt) [Example 21, N-(1-amino-4b-hydroxy-7-((1S,2R)-2-methylcyclopropyl)-10-oxo-4b,10-dihydro-9bH-indeno[1,2-b]benzofuran-9b-yl)-3-methyl-5-(methylsulfonyl)-1H-pyrrole-2-carboxamide] | 0.026 | 0.074 | 0.07 | 37.3 | 2.91 | 0.016 |
| C[C@H](c1ccc2c(c1)O[C@]1(O)c3cccc(N)c3C(=O)[C@]21NC(=O)CN1CCC1)C1CC1 [Example 5, N-((4bR,9bR)-1-amino-7-((S)-1-cyclopropylethyl)-4b-hydroxy-10-oxo-4b,10-dihydro-9bH-indeno[1,2-b]benzofuran-9b-yl)-2-(azetidin-1-yl)acetamide] | 0.072 | 0.039 | 0.036 | 19.2 | 1.35 | 0.016 |
| Cc1c(C(=O)N[C@]23C(=O)c4c(N)cccc4[C@@]2(O)Oc2cc([C@H](C)C4CC4)ccc23)[nH]c(=O)n1C [Example 22, N-((4bR,9bR)-1-amino-7-((R)-1-cyclopropylethyl)-4b-hydroxy-10-oxo-4b,10-dihydro-9bH-indeno[1,2-b]benzofuran-9b-yl)-1,5-dimethyl-2-oxo-2,3-dihydro-1H-imidazole-4-carboxamide] | 0.063 | 0.023 | 0.041 | 34.9 | 1.89 | 0.016 |
| Cc1cc(S(=O)(=O)N2CCN(C)CC2)[nH]c1C(=O)NC12C(=O)c3c(N)cccc3C1(O)Oc1cc(C(C)C)ccc12 (stereo not shown) [Example 13, N-(1-amino-4b-hydroxy-7-isopropyl-10-oxo-4b,10-dihydro-9bH-indeno[1,2-b]benzofuran-9b-yl)-3-methyl-5-((4-methylpiperazin-1-yl)sulfonyl)-1H-pyrrole-2-carboxamide] | 0.027 | 0.05 | 0.016 | 32.1 | 0.682 | 0.016 |
| C[C@@H](c1ccc2c(c1)O[C@]1(O)c3cccc(N)c3C(=O)[C@]21NC(=O)CN1CCC1)C1CC1 [Example 17, N-((4bR,9bR)-1-amino-7-((R)-1-cyclopropylethyl)-4b-hydroxy-10-oxo-4b,10-dihydro-9bH-indeno[1,2-b]benzofuran-9b-yl)-2-(azetidin-1-yl)acetamide] | 0.07 | 0.018 | 0.016 | 24.5 | 1.36 | 0.016 |
| C[C@@H](c1ccc2c(c1)O[C@]1(O)c3cccc(N)c3C(=O)[C@]21NC(=O)c1cccc(O)n1)C1CC1 [Example 8, N-((4bR,9bR)-1-amino-7-((R)-1-cyclopropylethyl)-4b-hydroxy-10-oxo-4b,10-dihydro-9bH-indeno[1,2-b]benzofuran-9b-yl)-6-hydroxypicolinamide] | 0.068 | 0.035 | 0.031 | 35 | 5.33 | 0.016 |
| Cc1c(S(C)(=O)=O)c[nH]c1C(=O)N[C@]12C(=O)c3c(N)cccc3[C@@]1(O)Oc1cc([C@H]3C[C@@H]3C)ccc12 [Example 28, N-((4bR,9bR)-1-amino-4b-hydroxy-7-((1S,2S)-2-methylcyclopropyl)-10-oxo-4b,10-dihydro-9bH-indeno[1,2-b]benzofuran-9b-yl)-3-methyl-4-(methylsulfonyl)-1H-pyrrole-2-carboxamide] | 0.16 | 0.045 | 0.037 | 19.8 | 1.85 | 0.016 |
